Laboratory results reported in patent publication US20190201430A1, “TREATING OCULAR NEOVASCULARIZATION” (Massachusetts Eye and Ear Infirmary, priority 2014, published 2019).

Assays:
HUVEC = test: Albumin endocytosis assay under H2O2 (Alexa555-BSA, confocal); format: cell-based, human; conditions: AICAR 2 mM 2 h, then H2O2 2 mM 30 min, FIG. 1D
Protocol: After serum starvation for overnight, HUVECs were pretreated with AICAR (2 mM) for 2 h, and then stimulated with H2O2 (2 mM) for 30 min. We added BSA conjugated with Alexa 555 (50 μg/ml, Life Technologies, Gaithersburg, Md.) in the medium during the experiment. Cells on coverslips were washed three times with cold TBS and fixed in 100% methanol at −20° C. for 15 min. Cells were then permeabilized in 0.3% Triton X-100, 0.15% BSA in TBS with 0.05% Tween 20 (TBST) for 15 min at room temperature and blocked with 0.5% skim milk in TBST for 60 min at room temperature. Cells were incubated in p-caveolin-1 antibody diluted 1:200 and VE-cadherin antibody diluted 1:400 for overnight at 4° C., and then incubated for 2 h in secondary antibody diluted 1:300. Cells were then rinsed three times in TBST before mounting in Toto3 (Life Technologies, Gaithersburg, Md.). Images were acquired with confocal microscope, Leica TCS SP2 spectral confocal laser scanning microscope (Leica Microsystems, Wetzlar, Germany).

VEGFR2/caveolin-1 = test: Immunoprecipitation of VEGFR2 with caveolin-1 under VEGF; format: cell-based, human; conditions: AICAR 2 mM 2 h, VEGF 12.5 ng/mL 10 min; FIG. 8F,G
Protocol: Immunoprecipitation was performed with the Universal Magnetic Co-IP Kit (Active Motif North America, Carlsbad, Calif.) according to the manufacturer's instruction.

c-Abl = test: Western blotting of H2O2 induced c-Abl phosphorylation in HUVEC; format: cell-based, human; conditions: AICAR 2 mM 2 h
Protocol: HUVECs (Lonza, Walkersville, Md.) were cultured in Endothelial Growth Medium (EGM, Lonza, Walkersville, Md.). For all experiments, cells were grown at 37° C. in a humidified atmosphere of 5% CO2 and 95% air. Experiments were performed on cells below passage 3 to 6 grown to 80-90% confluence.
Protein extraction and western blotting were carried out as described previously (Morizane et al. JBC). Densitometric analysis of bands was performed using ImageJ software. Lane-loading differences were normalized by β-actin.
(§1) Cells were transfected with siRNAs using Nucleofection kit (Amaxa Biosysteins, Gaithersburg, Md.), following the manufacturer's protocol. The medium was changed at 6 h after transfection. The down-regulation of each protein was evaluated at 3 days after nucleofection.

[1] = system: retinoblastoma xenografts; conditions: AICAR-treated retinoblastoma xenografts; cited from earlier work
VEGFR2 = test: Western blotting of VEGF induced VEGFR2 phosphorylation in HUVECs; format: cell-based, human; conditions: AICAR 2 mM 2 h, VEGF 12.5 ng/mL 0 to 60 min; FIG. 8C,D
Protocol: Human umbilical vein endothelial cells (HUVECs) were cultured in endothelial growth medium (EGM, Lonza, Walkersville, Md.). Normal human dermal fibroblasts (NHDFs) were cultured in fibroblast basal medium (ATCC, Rockville, Md.). Cells were grown at 37° C. in a humidified atmosphere of 95% air, 5% CO2. Experiments were performed on cells below passage 3 to 6 grown to 80%-90% confluence. Protein extraction and Western blotting were carried out as described previously (Morizane et al. JBC (26)). We conducted a densitometric analysis of bands using ImageJ software. Lane-loading differences were normalized by β-actin.

prdx1/c-Abl complex = test: Co-immunoprecipitation of prdx1 and c-Abl under H2O2; format: cell-based, human; conditions: AICAR 2 mM 2 h, H2O2 2 mM 30 min
Protocol: Immunoprecipitation was performed with the Universal Magnetic Co-IP Kit (Active Motif North America, Carlsbad, Calif.), according to the manufacturer's instruction.
as §1

Akt = test: Western blotting of Akt phosphorylation in HUVECs (VEGF); format: cell-based, human
Protocol: Human umbilical vein endothelial cells (HUVECs) were cultured in endothelial growth medium (EGM, Lonza, Walkersville, Md.). Normal human dermal fibroblasts (NHDFs) were cultured in fibroblast basal medium (ATCC, Rockville, Md.). Cells were grown at 37° C. in a humidified atmosphere of 95% air, 5% CO2. Experiments were performed on cells below passage 3 to 6 grown to 80%-90% confluence.
Protein extraction and Western blotting were carried out as described previously (Morizane et al. JBC (26)). We conducted a densitometric analysis of bands using ImageJ software. Lane-loading differences were normalized by β-actin.
Cells were transfected with siRNAs using a Nucleofection kit (Amaxa Biosystems, Gaithersburg, Md.), following the manufacturer's protocol. The medium was changed 6 h after transfection. The down-regulation of each protein was evaluated 3 days after nucleofection.

SMILES: NC(=O)c1ncn([C@@H]2O[C@H](CO)[C@@H](O)[C@H]2O)c1N [AICAR, 5-Aminoimidazole-4-carboxamide riboside]
- H2O2 induced albumin endocytosis (HUVEC): suppressed
- caveolin-1 phosphorylation (immunofluorescence) in albumin endocytosis assay (HUVEC): suppressed
- VEGFR2 dissociation from caveolin-1 upon VEGF stimulation (VEGFR2/caveolin-1): no effect
- inhibitory effect of AICAR on H2O2 induced c-Abl phosphorylation after knockdown of either AMPKα isoform (c-Abl; AMPKα1 or α2 siRNA HUVEC, H2O2 2 mM 30 min, FIG. 3): abolished
- H2O2 induced phosphorylation of c-Abl (c-Abl; HUVEC, then H2O2 0.5-2.0 mM 30 min, FIG. 1A,C): significantly suppressed
- inhibitory effect of AICAR on H2O2 induced c-Abl phosphorylation in cells lacking prdx1 (c-Abl; prdx1 siRNA HUVEC, H2O2 2 mM 30 min, FIG. 6A,C): abolished
- tumor vessel formation [1]: decrease in tumor vessel formation
- VEGFR2 phosphorylation upon VEGF stimulation (VEGFR2): no effect
- H2O2 induced dissociation between prdx1 and c-Abl (prdx1/c-Abl complex; FIG. 6D): inhibited
- inhibitory effect of AICAR on dissociation between c-Abl and prdx1 after deletion of AMPKα1 or α2 (prdx1/c-Abl complex; AMPKα1 or α2 siRNA HUVEC, FIG. 6F,G): decreased
- VEGF induced Akt phosphorylation (Akt; AICAR 2 mM 2 h, VEGF 12.5 ng/mL 0 to 60 min, FIG. 8C,E): significantly suppressed and delayed
- Akt phosphorylation state on AICAR treatment (time course) (Akt; AICAR 2 mM, presence or absence of VEGF, FIG. 9A,C): Akt dephosphorylation
- inhibitory effect of AICAR on VEGF-induced Akt phosphorylation after knockdown of either AMPKα isoform (Akt; AMPKα1 or α2 siRNA, AICAR 2 mM 2 h, VEGF 12.5 ng/mL 10 min, FIG. 13): abolished
- effects of AICAR on Akt dephosphorylation after PTEN knockdown (Akt; PTEN siRNA, AICAR 2 mM 2 h, VEGF 12.5 ng/mL 10 min, FIG. 9E,F): abrogated
